Measurements: patent US12458021B2, “Microbiocidal derivatives” (SYNGENTA CROP PROTECTION AG, priority 2019, dated 2025)

Key:
Alternaria solani = Alternaria solani / tomato / leaf disc (early blight); assay type: in vivo; details: foliar, tomato leaf disks cv. Baby, inoculated 2 days after application, assessed 5-7 days after application, read-out: control of Alternaria solani (percent disease control compared to untreated)
Procedure: Example B1: Alternaria solani/Tomato/Leaf Disc (Early Blight) Tomato leaf disks cv. Baby are placed on agar in multiwell plates (24-well format) and sprayed with the formulated test compound diluted in water. The leaf disks are inoculated with a spore suspension of the fungus 2 days after application. The inoculated leaf disks are incubated at 23° C./21° C. […] […]-185.

[1] = tested on: Glomerella lagenarium (Colletotrichum lagenarium); experiment: Glomerella lagenarium (Colletotrichum lagenarium) / liquid culture (anthracnose); assay type: cell-based; details: Colletotrichum orbiculare, PDB potato dextrose broth, 24° C., 3-4 days after application, read-out: control of Glomerella lagenarium (inhibition of growth, photometric)
How it was run: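 Fungal growth inhibition measured photometrically 3-4 days post-application at 24° C. Spores were mixed directly into potato dextrose broth and dispensed onto test compound supplied in DMSO.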

[2] = tested on: Blumeria graminis f. sp. tritici (Erysiphe graminis f. sp. tritici); experiment: Blumeria graminis f. sp. tritici / wheat / leaf disc preventative (powdery mildew on wheat); assay type: in vivo; details: foliar, wheat leaf segments cv. Kanzler, inoculated 1 day after application, assessed 6-8 days after application, read-out: control of Blumeria graminis f. sp. tritici (percent disease control compared to untreated)
Text: Example B4: Blumeria graminis f. sp. tritici (Erysiphe graminis f. sp. tritici)/Wheat/Leaf Disc Preventative (Powdery Mildew on Wheat) Wheat leaf segments cv. Kanzler are placed on agar in a multiwell plate (24-well format) and sprayed with the formulated test compound diluted in water. The leaf disks are inoculated by shaking powdery mildew infected plants above the test plates 1 day after application. […] […]-192.

[3] = tested on: Phaeosphaeria nodorum (Septoria nodorum); experiment: Phaeosphaeria nodorum (Septoria nodorum) / wheat / leaf disc preventative (glume blotch); assay type: in vivo; details: Parastagonospora nodorum, foliar, wheat leaf segments cv. Kanzler, inoculated 2 days after application, assessed 5-7 days after application, read-out: control of Phaeosphaeria nodorum (percent disease control compared to untreated)
Procedure: Example B6: Phaeosphaeria nodorum (Septoria nodorum)/Wheat/Leaf Disc Preventative (Glume Blotch) Wheat leaf segments cv. Kanzler are placed on agar in a multiwell plate (24-well format) and sprayed with the formulated test compound diluted in water. The leaf disks are inoculated with a spore suspension of the fungus 2 days after application. The inoculated test leaf disks are incubated at 20° C. and 75% rh under a light regime of 12 h light/12 h darkness in a climate cabinet and the activity of a compound is assessed as percent disease control compared to untreated when an appropriate level of disease damage appears in untreated check leaf disks (5-7 days after application). […] […]-190.

[4] = tested on: Monographella nivalis (Microdochium nivale); experiment: Monographella nivalis (Microdochium nivale) / liquid culture (foot rot cereals); assay type: cell-based; details: PDB potato dextrose broth, 24° C., 4-5 days after application, read-out: control of Monographella nivalis (inhibition of growth, photometric)
How it was run: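 Growth inhibition measured by photometry 4-5 days post-application at 24° C. Compound was dispensed as DMSO solution, then PDB broth containing conidia from cryogenic storage was added.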

[5] = tested on: Mycosphaerella arachidis (Cercospora arachidicola); experiment: Mycosphaerella arachidis (Cercospora arachidicola) / liquid culture (early leaf spot); assay type: cell-based; details: PDB potato dextrose broth, 24° C., 4-5 days after application, read-out: control of Mycosphaerella arachidis (inhibition of growth, photometric)
Procedure: Example B8: Mycosphaerella arachidis (Cercospora arachidicola)/Liquid Culture (Early Leaf Spot) Conidia of the fungus from cryogenic storage are directly mixed into nutrient broth (PDB potato dextrose broth). After placing a (DMSO) solution of test compound into a microtiter plate (96-well format), the nutrient broth containing the fungal spores is added. The test plates are incubated at 24° C. and the inhibition of growth is determined photometrically 4-5 days after application. […] […]-180.

[6] = tested on: Puccinia recondita f. sp. tritici; experiment: Puccinia recondita f. sp. tritici / wheat / leaf disc preventative (brown rust); assay type: in vivo; details: foliar, wheat leaf segments cv. Kanzler, inoculated 1 day after application, assessed 7-9 days after application, read-out: control of Puccinia recondita f. sp. tritici, preventative (percent disease control compared to untreated)
Procedure: Example B11: Puccinia recondita f. sp. tritici/Wheat/Leaf Disc Preventative (Brown Rust) Wheat leaf segments cv. Kanzler are placed on agar in multiwell plates (24-well format) and sprayed with the formulated test compound diluted in water. The leaf disks are inoculated with a spore suspension of the fungus 1 day after application. The inoculated leaf segments are incubated at 19° C. and 75% rh under a light regime of 12 h light/12 h darkness in a climate cabinet and the activity of a compound is assessed as percent disease control compared to untreated when an appropriate level of disease damage appears in untreated check leaf segments (7-9 days after application). […] […]-190.

[7] = tested on: Magnaporthe grisea (Pyricularia oryzae); experiment: whole plant or invertebrate; assay type: in vivo; details: foliar, read-out: control of Magnaporthe grisea (percent disease control compared to untreated)
Pyrenophora teres = Pyrenophora teres / barley / leaf disc preventative (net blotch); assay type: in vivo; details: foliar, barley leaf segments cv. Hasso, inoculated 2 days after application, assessed 5-7 days after application, read-out: control of Pyrenophora teres (disease control compared to untreated)
Procedure: Example B13: Pyrenophora teres/Barley/Leaf Disc Preventative (Net Blotch) Barley leaf segments cv. Hasso are placed on agar in a multiwell plate (24-well format) and sprayed with the formulated test compound diluted in water. The leaf segments are inoculated with a spore suspension of the fungus 2 days after application. The inoculated leaf segments are incubated at 20° C. and 65% rh under a light regime of 12 h light/12 h darkness in a climate cabinet and the activity of a compound is assessed as disease control compared to untreated when an appropriate level of disease damage appears in untreated check leaf segments (5-7 days after application). […] […]-185.

[8] = tested on: Mycosphaerella graminicola (Septoria tritici); experiment: Mycosphaerella graminicola (Septoria tritici) / liquid culture (Septoria blotch); assay type: cell-based; details: Zymoseptoria tritici, PDB potato dextrose broth, 24° C., 4-5 days after application, read-out: control of Mycosphaerella graminicola (inhibition of growth, photometric)
How it was run: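 Fungal growth inhibition was read photometrically 4-5 days after application. Compound was dosed from a DMSO solution into liquid cultures of spores in potato dextrose broth, incubated at 24° C.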

COc1ccc(Nc2cc(F)cc(F)c2)nc1C(=O)NC1CCC1Oc1ccc(F)cc1 (stereo not shown) [Compound P-45, 6-(3,5-difluoroanilino)-N-[2-(4-fluorophenoxy)cyclobutyl]-3-methoxy-pyridine-2-carboxamide]
≥ 80%: pest or weed control at 200 ppm (Alternaria solani) | inhibition at 20 ppm [1] | pest or weed control at 200 ppm [2] | pest or weed control at 200 ppm [3] | inhibition at 20 ppm [4] | inhibition at 20 ppm [5] | pest or weed control at 200 ppm [6] | pest or weed control at 200 ppm [7] | pest or weed control at 200 ppm (Pyrenophora teres) | inhibition at 20 ppm [8]

COc1ccc(Nc2cnsc2)nc1C(=O)NC1CCc2cc(C(F)(F)F)ccc21 (stereo not shown) [Compound P-79, 6-(isothiazol-4-ylamino)-3-methoxy-N-[5-(trifluoromethyl)indan-1-yl]pyridine-2-carboxamide]
≥ 80%: inhibition at 20 ppm [1] | inhibition at 20 ppm [4] | inhibition at 20 ppm [5] | pest or weed control at 200 ppm [6] | inhibition at 20 ppm [8]

COc1ccc(Nc2cc(F)cc(F)c2)nc1C(=O)NC1CCc2ccc(C(F)(F)F)cc21 (stereo not shown) [Compound P-56, 6-(3,5-difluoroanilino)-3-methoxy-N-[6-(trifluoromethyl)indan-1-yl]pyridine-2-carboxamide]
≥ 80%: pest or weed control at 200 ppm (Alternaria solani) | inhibition at 20 ppm [1] | pest or weed control at 200 ppm [3] | inhibition at 20 ppm [4] | inhibition at 20 ppm [5] | pest or weed control at 200 ppm [6] | inhibition at 20 ppm [8]

CCOc1ccc(Nc2cc(F)cc(F)c2)nc1C(=O)NC(C)(C)C [Compound P-94, N-tert-butyl-6-(3,5-difluoroanilino)-3-ethoxy-pyridine-2-carboxamide]
≥ 80%: pest or weed control at 200 ppm (Alternaria solani) | inhibition at 20 ppm [1] | pest or weed control at 200 ppm [2] | pest or weed control at 200 ppm [3] | inhibition at 20 ppm [4] | inhibition at 20 ppm [5] | pest or weed control at 200 ppm [7] | pest or weed control at 200 ppm (Pyrenophora teres) | inhibition at 20 ppm [8]

COc1ccc(Nc2cccc(C#N)c2)nc1C(=O)NC(C)(C)C [Compound P-146, N-tert-butyl-6-(3-cyanoanilino)-3-methoxy-pyridine-2-carboxamide]
≥ 80%: pest or weed control at 200 ppm (Alternaria solani) | inhibition at 20 ppm [1] | pest or weed control at 200 ppm [3] | inhibition at 20 ppm [4] | pest or weed control at 200 ppm [6] | pest or weed control at 200 ppm [7] | inhibition at 20 ppm [8]

COc1ccc(Nc2cc(F)nc(F)c2)nc1C(=O)NC(C)CCCC(C)C (stereo not shown) [Compound P-102, 6-[(2,6-difluoro-4-pyridyl)amino]-N-(1,5-dimethylhexyl)-3-methoxy-pyridine-2-carboxamide]
≥ 80%: inhibition at 20 ppm [1] | inhibition at 20 ppm [4] | inhibition at 20 ppm [5] | pest or weed control at 200 ppm [6] | pest or weed control at 200 ppm [7] | pest or weed control at 200 ppm (Pyrenophora teres) | inhibition at 20 ppm [8]

COc1ccc(Nc2cc(F)cc(F)c2)nc1C(=O)NCc1cc(F)cc(F)c1 [Compound P-26, 6-(3,5-difluoroanilino)-N-[(3,5-difluorophenyl)methyl]-3-methoxy-pyridine-2-carboxamide]
≥ 80%: inhibition at 20 ppm [1] | pest or weed control at 200 ppm [2] | pest or weed control at 200 ppm [3] | inhibition at 20 ppm [4] | inhibition at 20 ppm [5] | pest or weed control at 200 ppm [6] | pest or weed control at 200 ppm [7] | pest or weed control at 200 ppm (Pyrenophora teres) | inhibition at 20 ppm [8]

COc1ccc(Nc2cc(F)cc(F)c2)nc1C(=O)NCC(C)c1ccccc1 (stereo not shown) [Compound P-23, 6-(3,5-difluoroanilino)-3-methoxy-N-(2-phenylpropyl)pyridine-2-carboxamide]
≥ 80%: inhibition at 20 ppm [1] | inhibition at 20 ppm [4] | inhibition at 20 ppm [5] | pest or weed control at 200 ppm [6] | pest or weed control at 200 ppm [7] | inhibition at 20 ppm [8]

COc1ccc(Nc2cc(F)cc(F)c2)nc1C(=O)NCc1ccc(Oc2ccccc2)cc1 [Compound P-57, 6-(3,5-difluoroanilino)-3-methoxy-N-[(4-phenoxyphenyl)methyl]pyridine-2-carboxamide]
≥ 80%: inhibition at 20 ppm [1] | pest or weed control at 200 ppm [2] | pest or weed control at 200 ppm [3] | inhibition at 20 ppm [4] | inhibition at 20 ppm [5] | pest or weed control at 200 ppm [6] | pest or weed control at 200 ppm [7] | pest or weed control at 200 ppm (Pyrenophora teres) | inhibition at 20 ppm [8]

COc1ccc(Nc2cc(F)cc(F)c2)nc1C(=O)NC1CCc2cc(C(F)(F)F)ccc21 (stereo not shown) [Compound P-55, 6-(3,5-difluoroanilino)-3-methoxy-N-[5-(trifluoromethyl)indan-1-yl]pyridine-2-carboxamide]
≥ 80%: pest or weed control at 200 ppm (Alternaria solani) | inhibition at 20 ppm [1] | pest or weed control at 200 ppm [3] | inhibition at 20 ppm [4] | inhibition at 20 ppm [5] | pest or weed control at 200 ppm [6] | pest or weed control at 200 ppm [7] | inhibition at 20 ppm [8]

CC1(C)CCC1NC(=O)c1nc(Nc2cc(F)cc(F)c2)ccc1OC(F)F (stereo not shown) [Compound P-46, 6-(3,5-difluoroanilino)-3-(difluoromethoxy)-N-(2,2-dimethylcyclobutyl)pyridine-2-carboxamide]
≥ 80%: inhibition at 20 ppm [1] | pest or weed control at 200 ppm [3] | inhibition at 20 ppm [4] | inhibition at 20 ppm [5] | pest or weed control at 200 ppm [7] | inhibition at 20 ppm [8]

COc1ccc(Nc2cc(F)cc(F)c2)nc1C(=O)NCc1ccccc1 [Compound P-25, N-benzyl-6-(3,5-difluoroanilino)-3-methoxy-pyridine-2-carboxamide]
≥ 80%: inhibition at 20 ppm [1] | pest or weed control at 200 ppm [2] | pest or weed control at 200 ppm [3] | inhibition at 20 ppm [4] | pest or weed control at 200 ppm [6] | pest or weed control at 200 ppm [7] | inhibition at 20 ppm [8]

COc1ccc(Nc2cc(F)cc(F)c2)nc1C(=O)NCCOc1ccc(F)cc1 [Compound P-27, 6-(3,5-difluoroanilino)-N-[2-(4-fluorophenoxy)ethyl]-3-methoxy-pyridine-2-carboxamide]
≥ 80%: inhibition at 20 ppm [1] | pest or weed control at 200 ppm [3] | inhibition at 20 ppm [4] | inhibition at 20 ppm [5] | pest or weed control at 200 ppm [6] | pest or weed control at 200 ppm [7] | inhibition at 20 ppm [8]
